# US10508120B2, “TYK2 inhibitors and uses thereof” (Nimbus Lakshmi, Inc., priority 2017, dated 2019)
# Columns and labels:
# [1] = target: human TYK2 (JH2domain-pseudokinase) (Homo sapiens (Human), UniProt P29597); assay: TYK2 JH2 Domain Binding Assay (KINOMEscan)
# Procedure, shortened: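 Competition binding of an NFkB-DBD fusion of human TYK2 JH2 (G556–D888), expressed in HEK293 and used as crude extract at <0.1 nM, against immobilized ligand beads; 1 h at room temperature in PBS/Tween/DTT/BSA buffer, 0.9% DMSO.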
# Tyk2 kinase domain (DH1) = Tyk2 kinase domain (DH1) (Homo sapiens (Human), UniProt P29597); assay: Tyk2 Radioactive Kinase Assay; type: biochemical; settings: compound at 10 μM, ATP 10 μM; for inhibition at 10 µM: read-out: Tyk2 JH1% Inhibition @ 10 μM
# Procedure, shortened: (§1)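 Values are single-concentration percent inhibition figures. They were obtained with 10 μM compound in a radioactivity-based kinase assay run separately on each enzyme.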
# JAK2 kinase domain (JH1) = JAK2 kinase domain (JH1) (Homo sapiens (Human), UniProt O60674); assay: JAK2 Radioactive Kinase Assay; type: biochemical; settings: compound at 10 μM, ATP 10 μM; for inhibition at 10 µM: read-out: JAK2 JH1% Inhibition @ 10 μM
# Procedure, shortened: as §1
# [2] = target: Tyk2/JAK2 (heterodimeric complex) (Homo sapiens (Human), UniProt P29597); assay: IL-12 Induced pSTAT4 in Human PBMC; type: cell-based; settings: 1.7 ng/mL IL-12
# From the text: The IL-12 Induced pSTAT4 assay evaluates the inhibition of IL-12 induced STAT4 phophorylation mediated by Tyk2/JAK2 (heterodimeric complex).
# [3] = target: JAK2/JAK2 homdimeric complex (Homo sapiens (Human), UniProt O60674); assay: GM-CSF Induced pSTAT5 in Human PBMC; type: cell-based; settings: GM-CSF 5 ng/mL for 20 minutes, pSTAT5 by MSD, read-out: PBMC_GMCSF_pSTAT5 IC50
# JAK2/JAK2 homdimeric complex, sequence (O60674 whole entry, the tested form may be a part): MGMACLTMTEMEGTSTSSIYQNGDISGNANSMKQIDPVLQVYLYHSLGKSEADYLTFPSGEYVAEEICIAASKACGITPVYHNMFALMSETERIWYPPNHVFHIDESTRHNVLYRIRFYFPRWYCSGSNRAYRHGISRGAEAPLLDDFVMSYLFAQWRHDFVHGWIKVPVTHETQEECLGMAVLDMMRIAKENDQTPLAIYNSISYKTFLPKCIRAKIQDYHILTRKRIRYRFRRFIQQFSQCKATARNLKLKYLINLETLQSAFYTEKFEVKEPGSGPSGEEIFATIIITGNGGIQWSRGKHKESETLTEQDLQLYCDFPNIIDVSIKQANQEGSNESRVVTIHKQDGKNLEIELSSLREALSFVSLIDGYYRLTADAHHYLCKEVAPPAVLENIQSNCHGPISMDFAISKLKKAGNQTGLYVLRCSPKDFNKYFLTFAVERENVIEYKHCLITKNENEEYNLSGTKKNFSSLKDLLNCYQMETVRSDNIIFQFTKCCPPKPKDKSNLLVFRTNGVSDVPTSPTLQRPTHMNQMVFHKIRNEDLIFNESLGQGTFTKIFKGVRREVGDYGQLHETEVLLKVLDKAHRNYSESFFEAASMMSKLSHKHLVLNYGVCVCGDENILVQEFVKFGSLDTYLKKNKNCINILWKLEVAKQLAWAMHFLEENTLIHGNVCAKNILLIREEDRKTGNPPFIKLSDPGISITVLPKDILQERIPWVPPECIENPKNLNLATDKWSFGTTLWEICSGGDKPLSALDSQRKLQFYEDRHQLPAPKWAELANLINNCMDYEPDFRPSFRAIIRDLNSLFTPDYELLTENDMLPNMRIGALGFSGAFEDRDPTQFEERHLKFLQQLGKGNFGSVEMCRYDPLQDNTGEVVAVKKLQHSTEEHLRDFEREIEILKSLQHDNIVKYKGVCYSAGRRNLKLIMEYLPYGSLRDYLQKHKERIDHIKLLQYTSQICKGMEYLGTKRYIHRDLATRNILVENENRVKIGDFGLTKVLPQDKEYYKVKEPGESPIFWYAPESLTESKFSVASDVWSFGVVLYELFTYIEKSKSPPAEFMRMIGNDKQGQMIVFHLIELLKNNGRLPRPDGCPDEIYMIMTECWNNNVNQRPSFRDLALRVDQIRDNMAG
# JAK2/JAK2 homdimeric complex, sequence (P32927 17-897 partner): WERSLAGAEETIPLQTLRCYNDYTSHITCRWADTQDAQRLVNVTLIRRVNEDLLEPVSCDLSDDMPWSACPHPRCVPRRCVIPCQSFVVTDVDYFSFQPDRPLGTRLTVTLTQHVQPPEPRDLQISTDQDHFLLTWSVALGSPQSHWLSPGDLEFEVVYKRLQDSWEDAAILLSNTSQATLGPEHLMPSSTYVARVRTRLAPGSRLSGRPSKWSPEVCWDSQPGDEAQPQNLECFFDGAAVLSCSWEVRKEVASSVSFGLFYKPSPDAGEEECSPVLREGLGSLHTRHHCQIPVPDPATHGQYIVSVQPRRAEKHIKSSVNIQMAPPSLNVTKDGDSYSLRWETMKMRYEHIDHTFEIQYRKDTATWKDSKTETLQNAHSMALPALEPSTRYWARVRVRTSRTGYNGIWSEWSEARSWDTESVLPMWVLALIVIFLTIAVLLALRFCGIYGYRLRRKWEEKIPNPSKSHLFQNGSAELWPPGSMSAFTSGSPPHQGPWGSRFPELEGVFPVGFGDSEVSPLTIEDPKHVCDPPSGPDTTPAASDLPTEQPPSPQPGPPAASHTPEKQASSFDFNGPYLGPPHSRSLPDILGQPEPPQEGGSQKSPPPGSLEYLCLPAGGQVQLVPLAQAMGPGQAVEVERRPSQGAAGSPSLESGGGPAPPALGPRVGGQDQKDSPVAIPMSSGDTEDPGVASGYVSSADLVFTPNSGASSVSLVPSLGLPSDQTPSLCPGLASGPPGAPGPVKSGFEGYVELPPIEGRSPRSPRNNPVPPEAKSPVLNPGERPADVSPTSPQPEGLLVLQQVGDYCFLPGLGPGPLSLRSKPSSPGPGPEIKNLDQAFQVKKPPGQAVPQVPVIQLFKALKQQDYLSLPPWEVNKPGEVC
# Tyk2/JAK2 (heterodimeric complex), sequence (P29597 whole entry, other chains not shown): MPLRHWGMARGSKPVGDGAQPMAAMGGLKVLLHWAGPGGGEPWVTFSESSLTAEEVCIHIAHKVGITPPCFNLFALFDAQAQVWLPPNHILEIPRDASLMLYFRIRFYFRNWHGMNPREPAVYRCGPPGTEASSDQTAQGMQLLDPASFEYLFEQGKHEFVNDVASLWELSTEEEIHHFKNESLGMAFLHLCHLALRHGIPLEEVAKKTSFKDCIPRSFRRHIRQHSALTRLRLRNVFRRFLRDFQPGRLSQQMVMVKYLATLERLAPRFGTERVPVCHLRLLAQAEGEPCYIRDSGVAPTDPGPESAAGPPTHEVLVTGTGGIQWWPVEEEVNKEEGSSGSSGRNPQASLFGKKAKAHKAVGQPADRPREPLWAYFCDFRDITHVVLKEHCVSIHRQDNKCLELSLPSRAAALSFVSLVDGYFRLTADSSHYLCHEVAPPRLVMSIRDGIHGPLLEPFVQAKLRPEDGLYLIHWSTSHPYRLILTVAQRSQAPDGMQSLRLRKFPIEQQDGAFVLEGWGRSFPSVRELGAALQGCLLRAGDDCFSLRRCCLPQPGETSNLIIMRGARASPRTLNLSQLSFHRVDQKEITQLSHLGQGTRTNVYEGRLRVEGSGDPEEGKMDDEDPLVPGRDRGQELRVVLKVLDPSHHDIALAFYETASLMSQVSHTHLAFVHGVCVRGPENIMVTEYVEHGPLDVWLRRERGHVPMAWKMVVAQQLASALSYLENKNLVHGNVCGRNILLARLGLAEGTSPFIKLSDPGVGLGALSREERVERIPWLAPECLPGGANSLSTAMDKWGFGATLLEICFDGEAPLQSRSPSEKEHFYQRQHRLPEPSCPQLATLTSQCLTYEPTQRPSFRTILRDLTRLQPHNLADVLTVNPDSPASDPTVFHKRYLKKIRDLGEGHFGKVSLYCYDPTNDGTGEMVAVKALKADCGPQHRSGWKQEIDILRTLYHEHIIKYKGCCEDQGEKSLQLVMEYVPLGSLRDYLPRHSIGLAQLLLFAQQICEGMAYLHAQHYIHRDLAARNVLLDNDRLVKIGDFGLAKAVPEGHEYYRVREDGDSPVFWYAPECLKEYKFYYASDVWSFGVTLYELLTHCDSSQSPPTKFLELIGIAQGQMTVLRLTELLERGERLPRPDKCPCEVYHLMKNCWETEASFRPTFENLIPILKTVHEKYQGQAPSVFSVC
# JAK2 kinase domain (JH1), sequence (O60674 849-1124): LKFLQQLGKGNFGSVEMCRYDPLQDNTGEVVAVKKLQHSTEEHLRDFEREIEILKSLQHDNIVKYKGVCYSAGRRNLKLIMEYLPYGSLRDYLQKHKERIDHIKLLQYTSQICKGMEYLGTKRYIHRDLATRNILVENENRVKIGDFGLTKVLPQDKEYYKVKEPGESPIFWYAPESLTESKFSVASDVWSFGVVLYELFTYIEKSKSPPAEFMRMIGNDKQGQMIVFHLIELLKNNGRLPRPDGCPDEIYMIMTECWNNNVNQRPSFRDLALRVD
# Tyk2 kinase domain (DH1), sequence (P29597 897-1176): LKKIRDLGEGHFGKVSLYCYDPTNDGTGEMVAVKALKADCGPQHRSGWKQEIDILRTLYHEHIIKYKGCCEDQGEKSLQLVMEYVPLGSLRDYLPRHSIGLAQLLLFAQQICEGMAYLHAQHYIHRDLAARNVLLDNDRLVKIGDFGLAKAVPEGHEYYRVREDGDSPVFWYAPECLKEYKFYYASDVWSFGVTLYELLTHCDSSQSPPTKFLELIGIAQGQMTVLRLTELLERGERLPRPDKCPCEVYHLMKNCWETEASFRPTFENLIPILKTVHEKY
# human TYK2 (JH2domain-pseudokinase), sequence (P29597 556-888): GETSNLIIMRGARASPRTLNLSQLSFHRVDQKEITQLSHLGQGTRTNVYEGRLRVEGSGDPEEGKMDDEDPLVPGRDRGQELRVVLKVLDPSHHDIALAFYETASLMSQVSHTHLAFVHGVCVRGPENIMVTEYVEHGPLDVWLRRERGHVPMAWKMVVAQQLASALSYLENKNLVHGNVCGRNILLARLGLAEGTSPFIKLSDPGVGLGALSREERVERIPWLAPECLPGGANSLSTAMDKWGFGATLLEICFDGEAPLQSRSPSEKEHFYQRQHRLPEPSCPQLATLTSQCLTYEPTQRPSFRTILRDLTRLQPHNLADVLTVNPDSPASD
SMILES,Kd [1],inhibition at 10 µM (Tyk2 kinase domain (DH1)),inhibition at 10 µM (JAK2 kinase domain (JH1)),IC50 [2],IC50 [3],Tyk2 JH1% Inhibition @ 10 μM (Tyk2 kinase domain (DH1)),JAK2 JH1% Inhibition @ 10 μM (JAK2 kinase domain (JH1))
CNc1cc(Nc2cccn(-c3cc(C)nn3C)c2=O)nc2c(C(=O)NC3CCC3)cnn12 [I-342],0.2 to 1 nM,< 50%,< 50%,< 100 nM,> 12500 nM,–,–
CNc1cc(Nc2cccn([C@H]3CC[C@H](OC)CC3)c2=O)nc2c(C(=O)NC3CC3)cnn12 [I-343],< 0.2 nM,< 50%,< 50%,< 100 nM,> 12500 nM,–,–
CNc1cc(Nc2cccn([C@H]3CC[C@H](OC)CC3)c2=O)nc2c(C(=O)N[C@H]3C[C@H]3F)cnn12 [I-344],< 0.2 nM,< 50%,< 50%,< 100 nM,> 12500 nM,–,–
CNc1cc(Nc2cccn([C@H]3CC[C@H](OC)CC3)c2=O)nc2c(C(=O)NC3CCC3)cnn12 [I-345],< 0.2 nM,< 50%,< 50%,< 100 nM,> 50000 nM,–,–
CNc1cc(Nc2cccnc2OC)nc2c(C(=O)NCC(C)(C)CO)cnn12 [I-346],< 0.2 nM,< 50%,< 50%,< 100 nM,> 2500 nM,–,–
[2H]C([2H])([2H])Oc1ncccc1Nc1cc(NC)n2ncc(C(=O)NCC(C)(C)CO)c2n1 [I-347],< 0.2 nM,< 50%,< 50%,< 100 nM,> 50000 nM,–,–
CNc1cc(Nc2cccnc2OC2CC2)nc2c(C(=O)NCC(C)(C)CO)cnn12 [I-350],< 0.2 nM,< 50%,< 50%,< 100 nM,> 50000 nM,–,–
CNc1cc(Nc2cccn([C@H]3CCCOC3)c2=O)nc2c(C(=O)NC3CC3)cnn12 [I-352],< 0.2 nM,< 50%,< 50%,< 100 nM,> 50000 nM,–,–
CNc1cc(Nc2cccn([C@H]3CCCOC3)c2=O)nc2c(C(=O)NC3CCC3)cnn12 [I-354],< 0.2 nM,< 50%,< 50%,< 100 nM,> 2500 nM,–,–
CNc1cc(Nc2cccn([C@H]3CC[C@@H](OC)CC3)c2=O)nc2c(C(=O)N[C@H]3C[C@H]3F)cnn12 [I-357],< 0.2 nM,< 50%,< 50%,< 100 nM,> 2500 nM,–,–
CNc1cc(Nc2cccn([C@H]3CC[C@@](C)(OC)CC3)c2=O)nc2c(C(=O)NC3CC3)cnn12 [I-359],< 0.2 nM,< 50%,< 50%,100 to 500 nM,> 12500 nM,–,–
CNc1cc(Nc2cccn([C@H]3CC[C@@](C)(OC)CC3)c2=O)nc2c(C(=O)N[C@H]3C[C@H]3F)cnn12 [I-360],< 0.2 nM,< 50%,< 50%,< 100 nM,> 50000 nM,–,–
CNc1cc(Nc2cccn([C@H]3CC[C@](C)(OC)CC3)c2=O)nc2c(C(=O)N[C@H]3C[C@H]3F)cnn12 [I-362],< 0.2 nM,< 50%,< 50%,< 100 nM,> 50000 nM,–,–
CNc1cc(Nc2cccn(CC3CCCCO3)c2=O)nc2c(C(=O)N[C@H]3C[C@H]3F)cnn12 (some centres unmarked) [I-365],< 0.2 nM,< 50%,< 50%,< 100 nM,> 50000 nM,–,–
CNc1cc(Nc2cccn(-c3nc(C)co3)c2=O)nc2c(C(=O)NC3CC3)cnn12 [I-368],< 0.2 nM,< 50%,< 50%,< 100 nM,> 12500 nM,–,–
CNc1cc(Nc2cccn(-c3nc(C)co3)c2=O)nc2c(C(=O)N[C@H]3C[C@H]3F)cnn12 [I-369],< 0.2 nM,< 50%,< 50%,< 100 nM,> 50000 nM,–,–
[2H]C([2H])([2H])Oc1ncccc1Nc1cc(NC)n2ncc(C(=O)N[C@H]3CC[C@@H]3O)c2n1 [I-373],< 0.2 nM,< 50%,< 50%,< 100 nM,> 50000 nM,–,–
CNc1cc(Nc2cc(F)cn(-c3ccn(C)n3)c2=O)nc2c(C(=O)NC3CC3)cnn12 [I-378],< 0.2 nM,< 50%,< 50%,< 100 nM,> 12500 nM,–,–
CNc1cc(Nc2cc(F)cn(-c3ccn(C)n3)c2=O)nc2c(C(=O)N[C@H]3C[C@H]3F)cnn12 [I-379],< 0.2 nM,< 50%,< 50%,< 100 nM,> 2500 nM,–,–
CNc1cc(Nc2cc(F)cn(-c3cnn(C)c3)c2=O)nc2c(C(=O)NC3CC3)cnn12 [I-380],< 0.2 nM,< 50%,< 50%,< 100 nM,> 12500 nM,–,–
CNc1cc(Nc2cc(F)cn(-c3cnn(C)c3)c2=O)nc2c(C(=O)N[C@H]3C[C@H]3F)cnn12 [I-381],< 0.2 nM,< 50%,< 50%,< 100 nM,> 12500 nM,–,–
CNc1cc(Nc2cc(F)cn(-c3cc(C)n(C)n3)c2=O)nc2c(C(=O)NC3CC3)cnn12 [I-384],< 0.2 nM,< 50%,< 50%,< 100 nM,> 300 nM,–,–
CNc1cc(Nc2cc(F)cn(-c3cc(C)n(C)n3)c2=O)nc2c(C(=O)N[C@H]3C[C@H]3F)cnn12 [I-385],< 0.2 nM,< 50%,< 50%,< 100 nM,> 2500 nM,–,–
CNc1cc(Nc2cccn(-c3nc(C)co3)c2=O)nc2c(C(=O)NC3CCC3)cnn12 [I-386],< 0.2 nM,< 50%,< 50%,< 100 nM,> 50000 nM,–,–
"CNc1cc(Nc2cccnc2OC)nc2c(C(=O)NC3CCC3O)cnn12 (centres unmarked) [I-390, N-(2-hydroxycyclobutyl)-5-((2-methoxypyridin-3-yl)amino)-7-(methylamino) pyrazolo[1,5-a]pyrimidine-3-carboxamide]",< 0.2 nM,< 50%,< 50%,< 100 nM,> 50000 nM,–,–
"CNc1cc(Nc2cccnc2OC2CC2)nc2c(C(=O)NC3CCC3O)cnn12 (centres unmarked) [I-392, 5-((2-cyclopropoxypyridin-3-yl)amino)-N-(2-hydroxycyclobutyl)-7-(methylamino)pyrazolo[1,5-a]pyrimidine-3-carboxamide]",< 0.2 nM,< 50%,< 50%,< 100 nM,> 50000 nM,–,–
CNc1cc(Nc2cccn(C3CCC4(CC3)OCCO4)c2=O)nc2c(C(=O)NC3CC3)cnn12 [I-393],< 0.2 nM,< 50%,< 50%,< 100 nM,> 12500 nM,–,–
CNc1cc(Nc2cccnc2OC)nc2c(C(=O)N[C@H]3CC[C@@H]3O)cnn12 [I-395],< 0.2 nM,–,–,< 100 nM,> 12500 nM,A (percent inhibition at 10 μM lower than 50),A (percent inhibition at 10 μM lower than 50)
